According to US11639352B2, “Benzothiazole compounds for the treatment of autoimmune diseases” (Hoffmann-La Roche Inc., priority 2018, dated 2023):

Molecular target: T1, human TLR8 (Homo sapiens, UniProt Q9NR97)
T1 sequence (Q9NR97 27-1041): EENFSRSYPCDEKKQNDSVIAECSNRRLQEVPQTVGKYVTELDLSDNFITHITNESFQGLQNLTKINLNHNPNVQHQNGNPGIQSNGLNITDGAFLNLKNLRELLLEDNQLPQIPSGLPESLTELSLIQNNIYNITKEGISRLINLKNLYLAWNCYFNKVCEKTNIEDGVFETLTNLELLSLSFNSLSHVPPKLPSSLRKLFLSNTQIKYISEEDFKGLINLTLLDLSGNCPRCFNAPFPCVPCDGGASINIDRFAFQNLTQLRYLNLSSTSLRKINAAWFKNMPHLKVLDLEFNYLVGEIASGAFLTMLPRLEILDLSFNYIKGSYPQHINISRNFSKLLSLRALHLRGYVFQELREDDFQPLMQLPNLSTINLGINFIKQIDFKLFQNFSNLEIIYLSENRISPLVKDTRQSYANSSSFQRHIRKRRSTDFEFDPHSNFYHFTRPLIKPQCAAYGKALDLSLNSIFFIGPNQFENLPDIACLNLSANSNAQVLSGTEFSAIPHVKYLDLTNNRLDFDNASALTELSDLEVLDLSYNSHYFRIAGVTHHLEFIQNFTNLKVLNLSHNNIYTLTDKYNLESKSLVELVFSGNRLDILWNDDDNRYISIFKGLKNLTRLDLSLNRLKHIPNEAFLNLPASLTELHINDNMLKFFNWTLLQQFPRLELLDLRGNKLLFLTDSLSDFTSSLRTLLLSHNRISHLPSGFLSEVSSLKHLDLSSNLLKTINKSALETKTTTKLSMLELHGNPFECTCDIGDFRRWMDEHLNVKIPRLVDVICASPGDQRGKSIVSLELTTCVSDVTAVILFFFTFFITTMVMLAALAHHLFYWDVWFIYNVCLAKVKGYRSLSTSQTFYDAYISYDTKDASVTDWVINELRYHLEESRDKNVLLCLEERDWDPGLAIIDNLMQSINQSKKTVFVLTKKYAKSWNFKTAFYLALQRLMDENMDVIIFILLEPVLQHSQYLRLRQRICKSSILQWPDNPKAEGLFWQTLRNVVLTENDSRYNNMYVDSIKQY
Experiment: HEK293-Blue-hTLR-8 cells assay (SEAP reporter, R848 stimulation)
Assay type: cell-based
Conditions: HEK293-Blue-hTLR8 cells, R848 ligand, 20 hrs incubation, antagonist
Procedure: The following tests were carried out in order to determine the activity of the compounds of formula (I) in HEK293-Blue-hTLR-7/8/9 cells assay.
HEK293-Blue-hTLR-8 Cells Assay:
A stable HEK293-Blue-hTLR-8 cell line was purchased from InvivoGen (Cat. #: hkb-htlr8, San Diego, Calif., USA). These cells were originally designed for studying the stimulation of human TLR8 by monitoring the activation of NF-κB. A SEAP (secreted embryonic alkaline phosphatase) reporter gene was placed under the control of the IFN-β minimal promoter fused to five NF-κB and AP-1-binding sites. The SEAP was induced by activating NF-κB and AP-1 via stimulating HEK-Blue hTLR8 cells with TLR8 ligands. Therefore the reporter expression was declined by TLR8 antagonist under the stimulation of a ligand, such as R848, for incubation of 20 hrs. The cell culture supernatant SEAP reporter activity was determined using QUANTI-Blue™ kit (Cat. #: rep-qb1, Invivogen, San Diego, Calif., USA) at a wavelength of 640 nm, a detection medium that turns purple or blue in the presence of alkaline phosphatase.
HEK293-Blue-hTLR8 cells were incubated at a density of 250,000˜450,000 cells/mL in a volume of 170 μL in a 96-well plate in Dulbecco's Modified Eagle's medium (DMEM) containing 4.5 g/L glucose, 50 U/mL penicillin, […], […], 2 mM L-glutamine, 10% (v/v) heat-inactivated fetal bovine serum with addition of 20 μL test compound in a serial dilution in the presence of final DMSO at 1% and 10 μL of 60 uM R848 in above DMEM, perform incubation under 37° C. in a CO2 incubator for 20 hrs. Then 20 μL of the supernatant from each well was incubated with 180 μL Quanti-blue substrate solution at 37° C. for 2 hrs and the absorbance was read at 620˜655 nm using a spectrophotometer. The signalling pathway that TLR8 activation leads to downstream NF-κB activation has been widely accepted, and therefore similar reporter assay was modified for evaluating TLR8 antagonist.

SMILES	IC50
C[C@@H]1CN(c2ccc(C#N)c3ncsc23)C[C@H](CN2CCC3(CCCNC3)C2)O1 (stereo partly drawn) [Example 1, 7-[(2S,6R)-2-(2,9-diazaspiro[4.5]decan-2-ylmethyl)-6-methyl-morpholin-4-yl]-1,3-benzothiazole-4-carbonitrile]	< 3 nM
C[C@@H]1CN(c2ccc(C#N)c3ncsc23)C[C@H](CN2CCC(N)CC2)O1 [Example 2, 7-[(2S,6R)-2-[(4-amino-1-piperidyl)methyl]-6-methyl-morpholin-4-yl]-1,3-benzothiazole-4-carbonitrile]	5 nM
C[C@@H]1CN(c2ccc(C#N)c3ncsc23)C[C@H](CN2CCC3(CCCNC3)CC2)O1 [Example 3, 7-[(2S,6R)-2-(2,9-diazaspiro[5.5]undecan-9-ylmethyl)-6-methyl-morpholin-4-yl]-1,3-benzothiazole-4-carbonitrile]	12 nM
C[C@@H]1CN(c2ccc(C#N)c3ncsc23)C[C@H](CN2CC3(CCCNC3)C2)O1 [Example 4, 7-[(2S,6R)-2-(2,8-diazaspiro[3.5]nonan-2-ylmethyl)-6-methyl-morpholin-4-yl]-1,3-benzothiazole-4-carbonitrile]	14 nM
C[C@@H]1CN(c2ccc(C#N)c3ncsc23)C[C@H](CN2CCC3(CCNCC3)CC2)O1 [Example 5, 7-[(2S,6R)-2-(3,9-diazaspiro[5.5]undecan-3-ylmethyl)-6-methyl-morpholin-4-yl]-1,3-benzothiazole-4-carbonitrile]	107 nM
C[C@@H]1CN(c2ccc(C#N)c3ncsc23)C[C@H](CN2CCC3(CCNC3)CC2)O1 [Example 6, 7-[(2S,6R)-2-(2,8-diazaspiro[4.5]decan-8-ylmethyl)-6-methyl-morpholin-4-yl]-1,3-benzothiazole-4-carbonitrile]	22 nM
C[C@@H]1CN(c2ccc(C#N)c3ncsc23)C[C@H](CN2CCC(N3CCCCC3)CC2)O1 [Example 7, 7-[(2R,6S)-2-methyl-6-[[4-(1-piperidyl)-1-piperidyl]methyl]morpholin-4-yl]-1,3-benzothiazole-4-carbonitrile]	< 3 nM
C[C@@H]1CN(c2ccc(C#N)c3ncsc23)C[C@H](CN2[C@@H]3CC[C@H]2C[C@@H](N)C3)O1 [Example 8, Endo-7-[(2S,6R)-2-[[(1R,5S)-3-amino-8-azabicyclo[3.2.1]octan-8-yl]methyl]-6-methyl-morpholin-4-yl]-1,3-benzothiazole-4-carbonitrile]	< 3 nM
C[C@@H]1CN(c2ccc(C#N)c3ncsc23)C[C@H](CN2[C@@H]3CC[C@H]2C[C@H](N)C3)O1 [Example 9, Exo-7-[(2S,6R)-2-[[(1S,5R)-3-amino-8-azabicyclo[3.2.1]octan-8-yl]methyl]-6-methyl-morpholin-4-yl]-1,3-benzothiazole-4-carbonitrile]	8 nM
C[C@@H]1CN(c2ccc(C#N)c3ncsc23)C[C@H](CN2CCC3(CCCN(C)C3)CC2)O1 [Example 10, 7-[(2R,6S)-2-methyl-6-[(2-methyl-2,9-diazaspiro[5.5]undecan-9-yl)methyl]morpholin-4-yl]-1,3-benzothiazole-4-carbonitrile]	< 3 nM
C[C@@H]1CN(c2ccc(C#N)c3ncsc23)C[C@H](C(=O)NC2CCN(C)CC2)O1 [Example 11, (2R,6R)-4-(4-cyano-1,3-benzothiazol-7-yl)-6-methyl-N-(1-methyl-4-piperidyl)morpholine-2-carboxamide]	< 3 nM
C[C@@H]1CN(c2ccc(C#N)c3ncsc23)C[C@H](C(=O)NCC2CN(C)CCO2)O1 (stereo partly drawn) [Example 12, (2R,6R)-4-(4-cyano-1,3-benzothiazol-7-yl)-6-methyl-N-[(4-methylmorpholin-2-yl)methyl]morpholine-2-carboxamide]	< 3 nM
